Laboratory results published in patent US9936701B2, “Herbicidal compounds” (Syngenta Participations AG, priority 2013, dated 2018).

Columns and labels:
[1] = tested on: a variety of test species; assay: Pre-emergence herbicidal activity (glasshouse, sprayed one day after sowing, evaluated after 13 days); format: in vivo; set-up: key: 5=total damage to plant; 0=no damage to plant; conditions: application pre-emergence, rate 1000 g/Ha, scale 0-5
Protocol: Seeds of a variety of test species were sown in standard soil in pots. After cultivation for one day (pre-emergence) under controlled conditions in a glasshouse (at 24/16° C., day/night; 14 hours light; 65% humidity), the plants were sprayed with an aqueous spray solution derived from the formulation of the technical active ingredient in acetone/water (50:50) solution containing 0.5% Tween 20 (polyoxyethelyene sorbitan monolaurate, CAS RN 9005-64-5). The test plants were then grown in a glasshouse under controlled conditions (at 24/16° C., day/night; 14 hours light; 65% humidity) and watered twice daily. After 13 days, the test was evaluated (5=total damage to plant; 0=no damage to plant).

[2] = tested on: a variety of test species; assay: Post-emergence herbicidal activity (glasshouse, sprayed after 8 days cultivation, evaluated after 13 days); format: in vivo; set-up: key: 5=total damage to plant; 0=no damage to plant; conditions: rate 1000 g/Ha, scale 0-5
Protocol: Seeds of a variety of test species were sown in standard soil in pots. After 8 days cultivation (post-emergence) under controlled conditions in a glasshouse (at 24/16° C., day/night; 14 hours light; 65% humidity), the plants were sprayed with an aqueous spray solution derived from the formulation of the technical active ingredient in acetone/water (50:50) solution containing 0.5% Tween 20 (polyoxyethelyene sorbitan monolaurate, CAS RN 9005-64-5). The test plants were then grown in a glasshouse under controlled conditions (at 24/16° C., day/night; 14 hours light; 65% humidity) and watered twice daily. After 13 days, the test was evaluated (5=total damage to plant; 0=no damage to plant).

Which “Pre-emergence herbicidal damage score, ABUTH” value [1] does the source give for `CC1=C(Br)C(=O)N(c2cc(C(C)(C)C)on2)C1O` (stereo not drawn) [A1] here?
The value was 5.

What about the “Pre-emergence herbicidal damage score, ALOMY” value [1] of the same compound?
The value was 2.

What about the “Pre-emergence herbicidal damage score, AMARE” value [1] of the same compound?
The value was 5.

And the “Pre-emergence herbicidal damage score, ECHCG” value [1]?
The value was 4.

What about the “Pre-emergence herbicidal damage score, SETFA” value [1] of the same compound?
Its value is 5.

What about the “Pre-emergence herbicidal damage score, ZEAMX” value [1] of the same compound?
Its value is 1.

What about the “ABUTH (Abutilon theophrasti) damage score, application post-emergence” value (“ABUTH … application post-emergence” below) [2] of the same compound?
The value was 5.

And the “ALOMY (Alopecurus myosuroides) damage score, application post-emergence” value (“ALOMY … application post-emergence” below) [2]?
Its value is 5.

And the “AMARE (Amaranthus retroflexus) damage score, application post-emergence” value (from here on “AMARE … application post-emergence”) [2]?
The value was 5.

What about the “ECHCG (Echinochloa crus-galli) damage score, application post-emergence” value (shortened to “ECHCG … application post-emergence”) [2] of the same compound?
Its value is 5.

What about the “SETFA (Setaria faberi) damage score, application post-emergence” value (“SETFA (Setaria faberi) damage score” below) [2] of the same compound?
The value was 5.

What about the “ZEAMX (Zea mays) damage score, application post-emergence” value (from here on “ZEAMX (Zea mays) damage score”) [2] of the same compound?
The value was 4.

Which results are given for `CC1=C(Br)C(=O)N(c2cc(C)on2)C1O` (stereo not drawn) [A3]?
Pre-emergence herbicidal damage score, ABUTH [1]: 5; Pre-emergence herbicidal damage score, ALOMY [1]: 3; Pre-emergence herbicidal damage score, AMARE [1]: 5; Pre-emergence herbicidal damage score, ECHCG [1]: 3; Pre-emergence herbicidal damage score, SETFA [1]: 5; Pre-emergence herbicidal damage score, ZEAMX [1]: 2; ABUTH (Abutilon theophrasti) damage score, application post-emergence [2]: 5; ALOMY (Alopecurus myosuroides) damage score, application post-emergence [2]: 4; AMARE (Amaranthus retroflexus) damage score, application post-emergence [2]: 5; ECHCG (Echinochloa crus-galli) damage score, application post-emergence [2]: 5; SETFA (Setaria faberi) damage score, application post-emergence [2]: 5; ZEAMX (Zea mays) damage score, application post-emergence [2]: 3

Which “Pre-emergence herbicidal damage score, ABUTH” value [1] does the source give for `CC1=C(Cl)C(=O)N(c2cc(C)on2)C1O` (stereo not drawn) [A4] here?
The value was 5.

And the “Pre-emergence herbicidal damage score, ALOMY” value [1]?
The value was 3.

What about the “Pre-emergence herbicidal damage score, AMARE” value [1] of the same compound?
Its value is 5.

What about the “Pre-emergence herbicidal damage score, ECHCG” value [1] of the same compound?
Its value is 4.

And the “Pre-emergence herbicidal damage score, SETFA” value [1]?
Its value is 5.

And the “Pre-emergence herbicidal damage score, ZEAMX” value [1]?
The value was 2.

What about the “ABUTH … application post-emergence” value [2] of the same compound?
Its value is 5.

And the “ALOMY … application post-emergence” value [2]?
Its value is 4.

And the “AMARE … application post-emergence” value [2]?
Its value is 5.

And the “ECHCG … application post-emergence” value [2]?
Its value is 5.

What about the “SETFA (Setaria faberi) damage score” value [2] of the same compound?
The value was 5.

And the “ZEAMX (Zea mays) damage score” value [2]?
The value was 3.

Which results are given for `CC1=C(Br)C(=O)N(c2cc(C(F)(F)F)on2)C1O` (stereo not drawn) [A6]?
Pre-emergence herbicidal damage score, ABUTH [1]: 0; Pre-emergence herbicidal damage score, ALOMY [1]: 1; Pre-emergence herbicidal damage score, AMARE [1]: 0; Pre-emergence herbicidal damage score, ECHCG [1]: 1; Pre-emergence herbicidal damage score, SETFA [1]: 1; Pre-emergence herbicidal damage score, ZEAMX [1]: 0; ABUTH (Abutilon theophrasti) damage score, application post-emergence [2]: 4; ALOMY (Alopecurus myosuroides) damage score, application post-emergence [2]: 2; AMARE (Amaranthus retroflexus) damage score, application post-emergence [2]: 4; ECHCG (Echinochloa crus-galli) damage score, application post-emergence [2]: 3; SETFA (Setaria faberi) damage score, application post-emergence [2]: 2; ZEAMX (Zea mays) damage score, application post-emergence [2]: 0

For `COCC(C)(C)c1cc(N2C(=O)C(Cl)=C(C)C2O)no1` (stereo not drawn) [A7], which “Pre-emergence herbicidal damage score, ABUTH” value [1] is on record?
Its value is 5.

What about the “Pre-emergence herbicidal damage score, ALOMY” value [1] of the same compound?
The value was 3.

And the “Pre-emergence herbicidal damage score, AMARE” value [1]?
The value was 5.

And the “Pre-emergence herbicidal damage score, ECHCG” value [1]?
The value was 4.

What about the “Pre-emergence herbicidal damage score, SETFA” value [1] of the same compound?
The value was 4.

And the “Pre-emergence herbicidal damage score, ZEAMX” value [1]?
The value was 2.

What about the “ABUTH … application post-emergence” value [2] of the same compound?
The value was 5.

And the “ALOMY … application post-emergence” value [2]?
The value was 5.

And the “AMARE … application post-emergence” value [2]?
Its value is 4.

What about the “ECHCG … application post-emergence” value [2] of the same compound?
The value was 5.

And the “SETFA (Setaria faberi) damage score” value [2]?
The value was 5.

What about the “ZEAMX (Zea mays) damage score” value [2] of the same compound?
The value was 5.

What does the source list for `COCC(C)(C)c1cc(N2C(=O)C(Br)=C(C)C2O)no1` (stereo not drawn) [A8]?
Pre-emergence herbicidal damage score, ABUTH [1]: 5; Pre-emergence herbicidal damage score, ALOMY [1]: 3; Pre-emergence herbicidal damage score, AMARE [1]: 5; Pre-emergence herbicidal damage score, ECHCG [1]: 4; Pre-emergence herbicidal damage score, SETFA [1]: 4; Pre-emergence herbicidal damage score, ZEAMX [1]: 1; ABUTH (Abutilon theophrasti) damage score, application post-emergence [2]: 5; ALOMY (Alopecurus myosuroides) damage score, application post-emergence [2]: 5; AMARE (Amaranthus retroflexus) damage score, application post-emergence [2]: 3; ECHCG (Echinochloa crus-galli) damage score, application post-emergence [2]: 5; SETFA (Setaria faberi) damage score, application post-emergence [2]: 5; ZEAMX (Zea mays) damage score, application post-emergence [2]: 3

Which “ABUTH … application post-emergence” value [2] does the source give for `CC1=C(Cl)C(=O)N(c2cc(C(C)(C)C)on2)[C@H]1O` [A9] here?
Its value is 5.

And the “ALOMY … application post-emergence” value [2]?
The value was 4.

What about the “AMARE … application post-emergence” value [2] of the same compound?
The value was 5.

And the “ECHCG … application post-emergence” value [2]?
Its value is 5.

What about the “SETFA (Setaria faberi) damage score” value [2] of the same compound?
The value was 5.

What about the “ZEAMX (Zea mays) damage score” value [2] of the same compound?
Its value is 5.
